# From patent publication US12281117B2, “Small molecule immune agonists and immune targeting compounds and application thereof” (SHENZHEN UNIVERSITY, priority 2018, dated 2025)
# How the values were obtained:
# spleen lymphocytes = experiment: Immunostimulatory effects on spleen lymphocytes, cytokines in supernatant by ELISA; format: cell-based, BALB/c or C57BL/6 mouse; details: FIG. 59 and FIG. 60; compared with JQ1 plus SZU-101
# Protocol: Effect Example 1: Detection of the Immunostimulatory Effects of the SZU-Series Small-Molecule Immune Agonists and Novel Immune Targeted Compounds of the Present Invention on Spleen Lymphocytes
# 1. Extraction of Spleen Lymphocytes
# (1) BALB/c or C57BL/6 mouse spleens were collected, ground in a small dish containing Mouse Lymphocyte Separation Medium, and filtered through a filter membrane (with a pore size of […]) to obtain a cell suspension, which was treated by centrifugation to obtain lymphocytes. The isolated lymphocytes were placed in a 15 mL centrifuge tube, into which 10 mL of 1640 complete medium was added. The mixture was mixed uniformly and centrifuged at 250 g for 10 minutes. The supernatant was discarded.
# (2) The cells were re-suspended with 1 mL of erythrocyte lysate. After 1 minute of lysis, 4 mL of 1640 complete medium was added for termination. The tube was centrifuged at 1,000 rpm for 5 minutes. The supernatant was discarded.
# (3) The cells were re-suspended with 2 mL of 1640 complete medium, counted, and then seeded into 24-well plates at a density of 1×10^6 cells per well.
# 2. Preparation of the Samples
# The spleen lymphocytes seeded into the 24-well plates were stimulated with different concentrations of the SZU-series small-molecule immune agonists and novel immune targeted compounds. The 24-well plate was transferred into an incubator. […]
# [1] = tested on: CD274 (PD-L1) on B16 cells; experiment: Inhibitory activity against CD274 (PD-L1) on B16 cells; format: cell-based; details: FIG. 61
smiles,measurement,setting,value
COCCOc1nc(N)c2nc(O)n(Cc3ccc(CNC(=O)CCC(=O)NCCOCCOCCOCCNC(=O)C[C@@H]4N=C(c5ccc(Cl)cc5)c5c(sc(C)c5C)-n5c(C)nnc54)cc3)c2n1 [SZU-119],activity of TLR7 agonist for stimulating immune cytokine,spleen lymphocytes,retains the activity of TLR7 agonist
same,inhibitory activity against CD274 (PD-L1) on B16 cells,[1],retains the inhibitory activity of JQ1
